# Laboratory results: paper PMC12047801, “Disrupting the OTUD4-USP7 deubiquitinase complex to suppress herpesvirus replication: a novel antiviral strategy” (PLOS Pathogens, 2025)
# “And” between values parts separate entries of the source, which are not always exact repeats. Identical values can stand only once. “Also recorded” adds a separate entry of the source. Like-named read-outs stand apart in the source and are kept apart here.
# Key:
# [1] = tested on: KSHV genome replication in BCBL-1 cells; assay: Relative viral genomic copy number (latency) by qPCR in BCBL-1 cells; format: cell-based; settings: 100 μM, 48 h
# [2] = tested on: interaction between USP7 and MDM2; format: cell-based
# USP7-TRAF domain = molecular target: T1, USP7-TRAF domain (Homo sapiens, UniProt Q93009); assay: Surface plasmon resonance (SPR) analysis of peptide binding to USP7-TRAF
# T1 construct: The TRAF domain of human and murine USP7 (1-208 aa) was subcloned into pGEX-6p-1; GST (N); made in house; host or cells: E. coli BL21 (DE3)
# [3] = tested on: KSHV latent gene transcription in BCBL-1 cells; format: cell-based
# [4] = tested on: interaction between OTUD4 and USP7-TRAF; assay: GST pull-down competition assay, human USP7-TRAF and FLAG-OTUD4; format: binding; settings: 100 μM, 4 h
# [5] = tested on: OTUD4-USP7 interaction in FLAG-OTUD4-expressing SLK.iBAC-GFP cells; format: cell-based
# RTA in HEK293T cells = format: cell-based, KSHV
# [6] = tested on: KSHV lytic replication in SLK.iBAC-GFP cells transduced with vector control or OTUD4; format: cell-based; design: KSHV infectious units: unit not given here
# [7] = tested on: KSHV viral proteins in BCBL-1-Tet-K-RTA cells; format: cell-based; settings: 100 μM
# [8] = tested on: KSHV lytic reactivation in SLK.iBAC-GFP cells; format: cell-based
# Method: (A) Graphical illustration showing the rationale underlying our peptide design. (B) Surface Plasmon Resonance (SPR) analysis assessing the interaction of the USP7-TRAF domain with the designed peptides p2 and p8. (C) SLK.iBAC-GFP cells were induced with doxycycline (Dox, 1 μg/mL) and sodium butyrate (0.5 mM) in the presence of the Tat fusion peptides (100 μM). All the peptides were fused to an N-terminal Tat47-57 peptide ([…]) via a flexible GG linker. The supernatants containing infectious virions were collected 48 h post-induction and used to infect HEK293T cells. KSHV infectious units were calculated based on the percentage of GFP-positive cells determined by flow cytometry. Data are mean ± s.d. of N = 3 independent biological replicates. (D) SLK.iBAC-GFP cells were induced with doxycycline (Dox, 1 μg/mL) and sodium butyrate (0.5 mM) in the presence of increasing amount of p8 (0, 10, 50, 100 μM). KSHV infectious units were determined 48 h post-induction. Data are mean ± s.d. of N = 3 independent biological replicates. […] Data are mean ± s.d. of N = 3 independent biological replicates. […] Cell viability was assessed by measuring ATP levels 48 h post-induction. Data are mean ± s.d. of N = 3 independent biological replicates.
# Peptides p1 to p12 (S1A Fig) were synthesized by Sangon Biotech (Shanghai, China) with 95% purity. The Tat-fused peptides in Fig 1C consisted of the corresponding peptides conjugated to the Tat47-57 peptide ([…]) and two glycine linker residues (QYAOBIO, Suzhou, China). The peptides p8-DRI (nssqsasqnvpprrrqrrkkrGy) and p2-DRI (iesndedavepprrrqrrkkrGy) were synthesized using D-amino acids in a retro-reversed sequence with 95% purity (QYAOBIO, Suzhou, China). The peptide p8-m ([…]) was synthesized with 95% purity (QYAOBIO, Suzhou, China). All the peptides were acetylated at the N-terminus and amidated at the C-terminus to mimic the native peptide structure. The peptides were dissolved in PBS to prepare 1 mM stock solutions for in vitro experiments and 5 mg/ml stock solutions for in vivo experiments.
# SLK.iBAC-GFP cells were treated with Dox (1 μg/ml) and sodium butyrate (0.5 mM) to induce lytic reactivation in the presence of indicated peptides (100 μM). The supernatants were collected at the specified time points and used to infect HEK293T cells at appropriate dilutions. The infected cells were collected, fixed, and analyzed by flow cytometry 24 h post-infection. FlowJo 10.0 software was used to analyze the data, and KSHV infectious units were quantified based on the percentage of GFP-positive cells.
# RTA in iSLK cells = format: cell-based, KSHV
# MHV68 in MLF cells = format: cell-based
# SLK.iBAC-GFP cells = format: cell-based; settings: Fig. 1F, 100 μM, 48 h
# Method: SLK.iBAC-GFP cells were seeded in a 96-well plate at a density of 1 × 10^5 cells/well. The cells were then treated with doxycycline (Dox, 1 μg/ml) and sodium butyrate (0.5 mM) to induce lytic reactivation in the presence of the indicated peptides (100 μM) for 48 h. After treatment and a 30-min equilibration at room temperature, CellTiter-Glo Reagent (Promega, G7570) was added in equal volumes to culture medium. Plates underwent orbital shaking (2 min) for lysis, followed by a 10-min incubation for signal stabilization and luminescence recording (0.25-1 sec integration).
# [9] = tested on: interaction between murine USP7-TRAF and murine OTUD4; format: binding; settings: GST pull-down
# [10] = tested on: KSHV lytic replication in BCBL-1-Tet-K-RTA cells; format: cell-based
# [11] = tested on: KSHV lytic gene expression in SLK.iBAC-GFP cells; format: cell-based
# [12] = tested on: KSHV-RTA-WT lytic reactivation; format: cell-based
# [13] = tested on: interaction between USP7 and p53; format: cell-based
# [14] = tested on: interaction between USP7 and ICP0; format: cell-based
# [15] = tested on: KSHV lytic gene expression in BCBL-1-Tet-K-RTA cells; format: cell-based
# MHV68 in NIH3T3 cells = format: cell-based
# [16] = tested on: KSHV lytic reactivation in OTUD4- or USP7-knockdown SLK.iBAC-GFP cells; format: cell-based
# T1 sequence (Q93009 1-208): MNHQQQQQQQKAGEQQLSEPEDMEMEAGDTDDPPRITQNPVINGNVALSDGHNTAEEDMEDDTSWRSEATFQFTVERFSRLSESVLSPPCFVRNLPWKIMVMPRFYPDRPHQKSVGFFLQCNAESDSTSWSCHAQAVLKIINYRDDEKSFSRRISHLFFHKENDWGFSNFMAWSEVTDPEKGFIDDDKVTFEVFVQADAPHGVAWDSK
substance,measurement,setting,value
Ac-YGRKKRRQRRRGGVNQSASQSSN-NH2 [p8],KSHV genome replication in latency (in words),[1],did not affect KSHV latent gene transcription or genome replication
same,Effect on USP7-MDM2 interaction (in words),[2],did not affect the interactions
same,Binding to the USP7-TRAF domain (in words),USP7-TRAF domain,specifically bound to the USP7-TRAF domain
same,ORF71 mRNA expression,[3],1.01 and 1.03
same,ORF72 mRNA expression,[3],1.27 and 1.18 and 1.09
same,ORF73 mRNA expression,[3],0.87 and 0.86 and 0.96
same,KSHV latent gene transcription (in words),"[3]; 100 μM, 48 h",did not affect KSHV latent gene transcription
same,Disruption of OTUD4/USP7-TRAF interaction (in words),[4],effectively blocked the interaction between OTUD4 and USP7-TRAF
same,Co-localization of OTUD4 and USP7 (in words),[5],disrupted the co-localization of OTUD4 and USP7
same,Effect on OTUD4-enhanced RTA protein level (in words),RTA in HEK293T cells,countered the promoting effect
same,Effect on OTUD4-promoted KSHV lytic replication (in words),[6],negated by p8
same,KSHV infectious units,[6],6.7 and 4.8 and 4.4 and 5.5 and 6.5 and 6.3
same,Viral protein levels (in words),[7],lower levels of viral proteins
same,KSHV progeny virion production (in words),"[8]; S2E Fig, 100 μM",significantly reduced KSHV progeny virion production
same,Inhibition of KSHV lytic reactivation (in words),"[8]; Tat-fused peptides, 100 μM or dose series, 48 h post-induction",effectively inhibited KSHV lytic reactivation in a dose-dependent manner; also recorded: efficiently suppressed KSHV lytic reactivation
same,RTA protein level in iSLK cells (in words),RTA in iSLK cells,reduced the protein level of RTA
same,Antiviral activity against MHV68 in MLF cells (in words),MHV68 in MLF cells,potent antiviral activity against MHV68
same,ORF9 viral gene expression,MHV68 in MLF cells,0.54 and 0.47 and 0.53
same,ORF25 viral gene expression,MHV68 in MLF cells,0.37 and 0.47 and 0.44
same,ORF50 viral gene expression,MHV68 in MLF cells,0.77 and 0.82 and 0.65
same,Cytotoxicity (in words),SLK.iBAC-GFP cells,minimal cytotoxicity
same,Cell viability (ATP levels),SLK.iBAC-GFP cells; replicate 1,91.6982
same,Cell viability (ATP levels),SLK.iBAC-GFP cells; replicate 2,88.8817
same,Cell viability (ATP levels),SLK.iBAC-GFP cells; replicate 3,95.2836
same,"Relative inhibitory activity on murine USP7-TRAF/murine OTUD4 interaction, p8 vs p8-m (in words)",[9]; 100 μM (S5E Fig),slightly stronger inhibitory activity
same,Disruption of murine USP7-TRAF/murine OTUD4 interaction (in words),"[9]; 100 μM, 4 h (S5E Fig)",effectively disrupted the interaction
same,KSHV genome copies in supernatants,[10],1.3 and 1.45 and 1.47
same,Progeny viral genomic copy number (in words),"[10]; 100 μM, 48 h",reduced progeny viral genomic copy number
same,ORF25 gene expression,[11],0.63 and 0.71 and 0.72
same,ORF26 gene expression,[11],0.64 and 0.65 and 0.71
same,ORF50 gene expression,[11],0.69 and 0.8
same,ORF56 gene expression,[11],0.84 and 0.81 and 0.83
same,ORF57 gene expression,[11],0.74 and 0.75
same,"Transcription levels of ORF50, ORF56, ORF57, ORF25, ORF26 (in words)",[11],decreased the transcription levels of multiple viral genes
same,KSHV infectious units,[12],1.8648 and 1.9224 and 1.6488
same,Effect on USP7-p53 interaction (in words),[13],did not affect the interactions
same,Effect on USP7-ICP0 interaction (in words),[14],did not affect the interactions
same,ORF25 gene expression,[15],0.73 and 0.71
same,ORF26 gene expression,[15],0.38 and 0.45 and 0.4
same,ORF50 gene expression,[15],0.4 and 0.44 and 0.49
same,ORF56 gene expression,[15],0.63 and 0.69 and 0.67
same,ORF57 gene expression,[15],0.5 and 0.43 and 0.54
same,Transcription of KSHV lytic genes (in words),[15]; 100 μM,decreased transcription of KSHV lytic genes
same,Antiviral activity against MHV68 in NIH3T3 cells (in words),MHV68 in NIH3T3 cells,potent antiviral activity against MHV68
same,ORF9 viral gene expression,MHV68 in NIH3T3 cells,0.25 and 0.26
same,ORF25 viral gene expression,MHV68 in NIH3T3 cells,0.28 and 0.26
same,ORF50 viral gene expression,MHV68 in NIH3T3 cells,0.24 and 0.22 and 0.27
same,Antiviral effect in OTUD4-deficient or USP7-deficient cells (in words),[16],abolished
